Tests used:
Assay in all cases: Cysteine liganding, probe competition
Format in all cases: binding
UniProt Q969V5 = target: T1, UniProt Q969V5 (Homo sapiens, UniProt Q969V5); settings: for percent inhibition: 100 uM
T1 construct: Cells were resuspended in cold PBS on ice and sonicated with a probe sonicator to achieve lysis; endogenous in cells
T1 sequence (Q969V5 1-352): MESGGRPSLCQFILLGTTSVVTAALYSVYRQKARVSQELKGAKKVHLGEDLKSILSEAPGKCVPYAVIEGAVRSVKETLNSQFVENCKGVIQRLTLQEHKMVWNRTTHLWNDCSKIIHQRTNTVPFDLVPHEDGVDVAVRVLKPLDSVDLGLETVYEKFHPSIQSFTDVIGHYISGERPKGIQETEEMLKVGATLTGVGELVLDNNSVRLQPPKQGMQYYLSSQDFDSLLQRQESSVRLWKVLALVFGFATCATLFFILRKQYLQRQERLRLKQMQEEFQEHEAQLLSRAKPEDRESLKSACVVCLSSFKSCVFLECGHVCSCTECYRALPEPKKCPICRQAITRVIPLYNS
Description: (§1) The following 96-well sample prep protocol was used for sample preparation.

UniProt Q9BR09 = target: T2, UniProt Q9BR09 (Homo sapiens, UniProt Q9BR09); settings: read-out: percent inhibition
T2 construct: Cells were resuspended in cold PBS on ice and sonicated with a probe sonicator to achieve lysis; endogenous in cells
Description: as §1

UniProt Q96DX4 = target: T3, UniProt Q96DX4 (Homo sapiens, UniProt Q96DX4); settings: read-out: percent_inhibition
T3 construct: 200 μL of lysate containing 5 mg/ml proteome was treated with 2 μL of 100× compound stock; endogenous in cells
T3 sequence (Q96DX4 17-576, change not shown): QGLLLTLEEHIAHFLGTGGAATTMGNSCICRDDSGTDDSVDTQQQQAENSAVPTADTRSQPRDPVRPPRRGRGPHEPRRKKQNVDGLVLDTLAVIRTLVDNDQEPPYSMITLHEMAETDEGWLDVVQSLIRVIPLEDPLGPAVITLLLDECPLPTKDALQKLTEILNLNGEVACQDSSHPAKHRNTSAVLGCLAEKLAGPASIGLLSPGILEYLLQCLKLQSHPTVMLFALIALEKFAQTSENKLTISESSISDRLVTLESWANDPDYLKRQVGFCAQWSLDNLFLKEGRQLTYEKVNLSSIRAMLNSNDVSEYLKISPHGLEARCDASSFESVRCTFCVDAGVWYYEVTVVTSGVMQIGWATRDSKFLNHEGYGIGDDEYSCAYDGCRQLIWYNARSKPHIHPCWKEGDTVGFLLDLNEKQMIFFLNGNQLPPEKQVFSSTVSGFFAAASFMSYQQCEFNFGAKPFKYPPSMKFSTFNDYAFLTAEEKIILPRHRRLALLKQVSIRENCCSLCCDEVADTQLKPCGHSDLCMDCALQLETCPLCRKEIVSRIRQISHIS
Description: as §1

UniProt P63208 = target: T4, UniProt P63208 (Homo sapiens, UniProt P63208); settings: for percent_inhibition: 100 uM; for inhibition at 100 µM: read-out: percent_inhibition
T4 construct: 200 μL of lysate containing 5 mg/ml proteome was treated with 2 μL of 100× compound stock; endogenous in cells
T4 sequence (P63208 whole entry, change not shown): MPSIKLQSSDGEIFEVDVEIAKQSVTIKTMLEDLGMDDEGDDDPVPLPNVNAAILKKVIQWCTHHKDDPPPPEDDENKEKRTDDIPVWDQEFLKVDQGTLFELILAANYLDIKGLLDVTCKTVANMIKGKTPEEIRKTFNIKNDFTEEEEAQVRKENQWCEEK
Description: as §1

UniProt Q13049 = target: T5, UniProt Q13049 (Homo sapiens, UniProt Q13049)
T5 construct: 200 μL of lysate containing 5 mg/ml proteome was treated with 2 μL of 100× compound stock; endogenous in cells
T5 sequence (Q13049 whole entry, change not shown): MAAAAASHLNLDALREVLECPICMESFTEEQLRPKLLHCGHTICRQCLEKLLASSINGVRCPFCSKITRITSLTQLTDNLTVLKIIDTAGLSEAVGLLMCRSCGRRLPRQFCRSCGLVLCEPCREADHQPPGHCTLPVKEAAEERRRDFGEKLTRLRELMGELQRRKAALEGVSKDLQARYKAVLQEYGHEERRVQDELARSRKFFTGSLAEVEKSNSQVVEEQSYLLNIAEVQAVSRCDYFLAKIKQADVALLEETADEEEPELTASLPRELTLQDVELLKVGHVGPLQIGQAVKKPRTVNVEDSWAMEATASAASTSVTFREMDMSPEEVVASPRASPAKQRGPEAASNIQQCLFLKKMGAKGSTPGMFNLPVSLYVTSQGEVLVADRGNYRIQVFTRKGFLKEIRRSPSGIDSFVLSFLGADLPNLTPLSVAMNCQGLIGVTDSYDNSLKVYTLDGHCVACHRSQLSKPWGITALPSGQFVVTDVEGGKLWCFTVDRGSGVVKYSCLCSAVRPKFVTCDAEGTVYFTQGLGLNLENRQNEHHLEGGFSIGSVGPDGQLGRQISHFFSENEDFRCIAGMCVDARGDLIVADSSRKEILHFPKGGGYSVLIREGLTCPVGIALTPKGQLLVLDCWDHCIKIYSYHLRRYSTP
Description: as §1

UniProt O43164 = target: T6, UniProt O43164 (Homo sapiens, UniProt O43164)
T6 construct: 200 μL of lysate containing 5 mg/ml proteome was treated with 2 μL of 100× compound stock; endogenous in cells
T6 sequence (O43164 whole entry, change not shown): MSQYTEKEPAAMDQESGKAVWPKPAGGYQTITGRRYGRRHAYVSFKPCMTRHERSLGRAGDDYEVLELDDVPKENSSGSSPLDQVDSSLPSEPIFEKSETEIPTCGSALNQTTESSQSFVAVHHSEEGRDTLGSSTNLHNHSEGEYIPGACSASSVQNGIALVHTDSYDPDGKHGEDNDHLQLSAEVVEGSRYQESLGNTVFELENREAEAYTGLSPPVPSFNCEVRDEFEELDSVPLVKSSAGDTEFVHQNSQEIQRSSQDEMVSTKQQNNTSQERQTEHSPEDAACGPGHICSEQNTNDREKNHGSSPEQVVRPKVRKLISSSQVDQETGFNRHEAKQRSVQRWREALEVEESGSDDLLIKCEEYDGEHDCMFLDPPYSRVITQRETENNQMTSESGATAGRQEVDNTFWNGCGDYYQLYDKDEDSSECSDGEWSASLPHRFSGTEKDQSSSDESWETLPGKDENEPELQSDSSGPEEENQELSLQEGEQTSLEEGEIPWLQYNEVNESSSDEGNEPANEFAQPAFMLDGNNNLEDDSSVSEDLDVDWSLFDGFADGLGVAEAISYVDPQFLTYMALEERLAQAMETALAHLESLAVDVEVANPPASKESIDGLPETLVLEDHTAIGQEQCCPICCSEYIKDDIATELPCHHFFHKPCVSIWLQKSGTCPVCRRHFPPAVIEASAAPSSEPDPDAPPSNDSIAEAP
Description: as §1

UniProt Q9NPC7 = target: T7, UniProt Q9NPC7 (Homo sapiens, UniProt Q9NPC7)
T7 construct: Cells were resuspended in cold PBS on ice and sonicated with a probe sonicator to achieve lysis; endogenous in cells
T7 sequence (Q9NPC7 1-610): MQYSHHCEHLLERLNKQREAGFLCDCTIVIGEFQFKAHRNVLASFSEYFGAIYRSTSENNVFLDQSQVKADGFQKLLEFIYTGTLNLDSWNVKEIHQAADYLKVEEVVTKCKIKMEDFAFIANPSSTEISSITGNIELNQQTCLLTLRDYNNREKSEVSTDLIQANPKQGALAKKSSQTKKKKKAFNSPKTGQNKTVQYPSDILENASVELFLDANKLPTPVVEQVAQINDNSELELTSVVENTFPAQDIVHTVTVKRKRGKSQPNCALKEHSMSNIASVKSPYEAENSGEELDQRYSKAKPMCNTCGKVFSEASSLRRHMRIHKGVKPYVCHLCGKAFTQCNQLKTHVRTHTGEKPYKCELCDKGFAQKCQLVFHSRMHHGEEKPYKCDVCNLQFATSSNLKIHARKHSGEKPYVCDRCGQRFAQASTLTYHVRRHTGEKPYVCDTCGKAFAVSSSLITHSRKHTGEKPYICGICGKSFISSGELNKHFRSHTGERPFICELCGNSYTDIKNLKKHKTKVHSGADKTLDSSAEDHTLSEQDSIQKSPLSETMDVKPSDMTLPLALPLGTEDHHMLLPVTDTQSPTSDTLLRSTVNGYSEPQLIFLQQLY
Description: as §1

UniProt Q496Y0 = target: T8, UniProt Q496Y0 (Homo sapiens, UniProt Q496Y0)
T8 construct: 200 μL of lysate containing 5 mg/ml proteome was treated with 2 μL of 100× compound stock; endogenous in cells
T8 sequence (Q496Y0 whole entry, change not shown): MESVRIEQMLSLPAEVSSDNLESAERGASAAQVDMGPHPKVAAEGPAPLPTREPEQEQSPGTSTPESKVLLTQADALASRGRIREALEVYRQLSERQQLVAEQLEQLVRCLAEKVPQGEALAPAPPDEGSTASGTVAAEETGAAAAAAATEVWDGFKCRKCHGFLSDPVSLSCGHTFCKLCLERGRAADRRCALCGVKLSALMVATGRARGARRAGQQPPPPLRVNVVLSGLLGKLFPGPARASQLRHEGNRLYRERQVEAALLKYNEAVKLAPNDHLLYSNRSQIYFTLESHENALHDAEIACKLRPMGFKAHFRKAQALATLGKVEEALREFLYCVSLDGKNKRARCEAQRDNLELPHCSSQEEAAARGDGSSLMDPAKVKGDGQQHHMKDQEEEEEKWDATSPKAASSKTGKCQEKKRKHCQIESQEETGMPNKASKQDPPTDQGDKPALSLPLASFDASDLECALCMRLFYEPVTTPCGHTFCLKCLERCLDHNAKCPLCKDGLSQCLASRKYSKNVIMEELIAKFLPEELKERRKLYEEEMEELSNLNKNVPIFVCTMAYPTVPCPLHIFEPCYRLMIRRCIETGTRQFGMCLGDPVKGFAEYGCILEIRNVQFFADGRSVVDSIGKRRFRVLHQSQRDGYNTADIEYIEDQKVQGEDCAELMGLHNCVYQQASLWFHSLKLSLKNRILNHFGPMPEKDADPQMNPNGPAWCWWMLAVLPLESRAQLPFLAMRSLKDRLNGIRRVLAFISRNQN
Description: as §1

UniProt A1L020 = target: T9, UniProt A1L020 (Homo sapiens, UniProt A1L020)
T9 construct: Cells were resuspended in cold PBS on ice and sonicated with a probe sonicator to achieve lysis; endogenous in cells
T9 sequence (A1L020 whole entry, change not shown): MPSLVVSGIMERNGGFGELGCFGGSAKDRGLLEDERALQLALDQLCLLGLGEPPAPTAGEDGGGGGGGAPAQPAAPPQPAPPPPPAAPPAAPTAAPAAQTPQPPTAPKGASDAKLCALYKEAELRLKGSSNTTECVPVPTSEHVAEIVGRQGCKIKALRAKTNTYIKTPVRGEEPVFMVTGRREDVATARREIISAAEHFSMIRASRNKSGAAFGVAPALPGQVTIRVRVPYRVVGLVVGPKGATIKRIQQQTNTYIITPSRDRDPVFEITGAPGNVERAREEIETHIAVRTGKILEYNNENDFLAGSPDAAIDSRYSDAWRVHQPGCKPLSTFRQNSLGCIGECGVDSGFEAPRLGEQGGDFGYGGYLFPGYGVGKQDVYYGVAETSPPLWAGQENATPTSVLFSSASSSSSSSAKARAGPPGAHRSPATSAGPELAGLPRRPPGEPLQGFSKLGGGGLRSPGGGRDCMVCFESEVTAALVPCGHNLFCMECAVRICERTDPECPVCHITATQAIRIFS
Description: as §1

UniProt Q86SE9 = target: T10, UniProt Q86SE9 (Homo sapiens, UniProt Q86SE9)
T10 construct: 200 μL of lysate containing 5 mg/ml proteome was treated with 2 μL of 100× compound stock; endogenous in cells
T10 sequence (Q86SE9 whole entry, change not shown): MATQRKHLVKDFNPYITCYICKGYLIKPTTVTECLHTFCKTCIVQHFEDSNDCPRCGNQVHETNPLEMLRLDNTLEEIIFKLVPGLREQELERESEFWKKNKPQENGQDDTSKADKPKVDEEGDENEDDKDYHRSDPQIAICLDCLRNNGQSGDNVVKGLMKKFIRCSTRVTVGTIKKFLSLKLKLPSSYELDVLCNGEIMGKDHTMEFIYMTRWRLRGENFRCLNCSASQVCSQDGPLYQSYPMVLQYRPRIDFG
Description: as §1

UniProt Q9UJ41 = target: T11, UniProt Q9UJ41 (Homo sapiens, UniProt Q9UJ41)
T11 construct: 200 μL of lysate containing 5 mg/ml proteome was treated with 2 μL of 100× compound stock; endogenous in cells
T11 sequence (Q9UJ41 whole entry, change not shown): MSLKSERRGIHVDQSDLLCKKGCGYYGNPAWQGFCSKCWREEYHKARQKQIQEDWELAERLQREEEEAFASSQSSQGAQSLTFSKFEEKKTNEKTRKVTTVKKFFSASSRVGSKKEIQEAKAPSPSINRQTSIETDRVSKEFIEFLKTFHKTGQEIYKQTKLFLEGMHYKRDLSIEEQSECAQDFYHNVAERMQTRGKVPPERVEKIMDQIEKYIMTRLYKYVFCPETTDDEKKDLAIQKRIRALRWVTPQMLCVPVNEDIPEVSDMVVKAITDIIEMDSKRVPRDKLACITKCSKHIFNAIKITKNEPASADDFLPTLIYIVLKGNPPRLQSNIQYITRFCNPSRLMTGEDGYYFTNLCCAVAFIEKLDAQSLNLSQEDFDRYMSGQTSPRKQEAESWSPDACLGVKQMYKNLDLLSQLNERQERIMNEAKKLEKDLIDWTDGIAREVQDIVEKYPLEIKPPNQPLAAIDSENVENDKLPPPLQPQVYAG
Description: as §1

UniProt Q9HCI7 = target: T12, UniProt Q9HCI7 (Homo sapiens, UniProt Q9HCI7); settings: for percent inhibition: 100 uM
T12 construct: Cells were resuspended in cold PBS on ice and sonicated with a probe sonicator to achieve lysis; endogenous in cells
T12 sequence (Q9HCI7 1-577): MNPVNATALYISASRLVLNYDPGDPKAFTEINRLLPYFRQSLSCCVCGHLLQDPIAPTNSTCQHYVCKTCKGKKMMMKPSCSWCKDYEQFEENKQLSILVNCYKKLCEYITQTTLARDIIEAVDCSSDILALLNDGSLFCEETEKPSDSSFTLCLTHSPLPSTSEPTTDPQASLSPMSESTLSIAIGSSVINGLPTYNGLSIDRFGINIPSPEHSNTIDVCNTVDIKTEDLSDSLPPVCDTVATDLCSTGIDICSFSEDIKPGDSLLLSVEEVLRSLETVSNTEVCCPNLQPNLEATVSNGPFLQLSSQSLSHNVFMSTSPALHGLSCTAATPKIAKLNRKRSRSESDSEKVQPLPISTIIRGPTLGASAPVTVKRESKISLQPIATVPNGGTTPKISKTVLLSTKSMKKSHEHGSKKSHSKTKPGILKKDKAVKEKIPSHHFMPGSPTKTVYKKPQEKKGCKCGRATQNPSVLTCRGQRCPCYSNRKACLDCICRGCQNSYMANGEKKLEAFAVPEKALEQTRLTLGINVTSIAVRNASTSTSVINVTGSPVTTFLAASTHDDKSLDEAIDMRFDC
Description: as §1

UniProt Q9HBE1 = target: T13, UniProt Q9HBE1 (Homo sapiens, UniProt Q9HBE1)
T13 construct: Cells were resuspended in cold PBS on ice and sonicated with a probe sonicator to achieve lysis; endogenous in cells
T13 sequence (Q9HBE1 whole entry, change not shown): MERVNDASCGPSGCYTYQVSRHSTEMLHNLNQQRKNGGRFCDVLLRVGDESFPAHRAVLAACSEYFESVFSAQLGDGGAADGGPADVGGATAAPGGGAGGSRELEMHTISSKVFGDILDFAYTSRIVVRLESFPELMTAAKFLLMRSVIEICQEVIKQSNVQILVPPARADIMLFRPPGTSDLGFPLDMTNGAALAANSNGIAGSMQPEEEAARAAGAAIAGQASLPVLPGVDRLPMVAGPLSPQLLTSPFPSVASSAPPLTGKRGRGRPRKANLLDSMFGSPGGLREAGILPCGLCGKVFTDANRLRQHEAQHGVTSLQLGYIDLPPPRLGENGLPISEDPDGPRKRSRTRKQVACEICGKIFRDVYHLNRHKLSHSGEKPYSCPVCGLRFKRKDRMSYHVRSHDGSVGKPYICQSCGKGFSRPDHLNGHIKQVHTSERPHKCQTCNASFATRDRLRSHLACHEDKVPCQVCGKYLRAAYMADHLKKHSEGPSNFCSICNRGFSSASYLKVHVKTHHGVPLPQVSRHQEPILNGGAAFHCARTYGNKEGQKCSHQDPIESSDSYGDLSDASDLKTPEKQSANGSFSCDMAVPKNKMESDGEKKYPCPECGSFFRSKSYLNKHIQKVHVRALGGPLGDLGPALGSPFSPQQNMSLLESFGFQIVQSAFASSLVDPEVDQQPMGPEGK
Description: as §1

[1] = read-out: KB05_100 uM_percent_inhibition
[2] = 100 uM, read-out: percent inhibition
[3] = 500 uM, read-out: percent inhibition

COc1ccc2c(c1)CCCN2C(=O)CCl [KB02]
percent inhibition (UniProt Q969V5): 35% | inhibition at 100 µM (UniProt Q969V5; read-out: percent inhibition): 25% | inhibition at 500 µM (UniProt Q9BR09): 32% | inhibition at 500 µM (UniProt Q96DX4): 17% | percent_inhibition (UniProt P63208): 18% | inhibition at 100 µM (UniProt P63208): 13%

C=CC(=O)N(c1ccccc1)c1ccc(Br)cc1 [KB05]
inhibition at 100 µM (UniProt Q13049; [1]): 5% | inhibition at 100 µM (UniProt O43164; [1]): 1% | inhibition at 500 µM (UniProt Q9BR09): 3% | inhibition at 100 µM (UniProt Q9NPC7; [2]): 1% | inhibition at 500 µM (UniProt Q9NPC7; [3]): 58% | inhibition at 100 µM (UniProt Q496Y0; [2]): 26% | percent inhibition (UniProt Q496Y0; 500 uM): 52% | inhibition at 500 µM (UniProt Q496Y0; [3]): 47% | inhibition at 100 µM (UniProt A1L020; read-out: percent inhibition): 19% | inhibition at 100 µM (UniProt Q86SE9; 100 uM, read-out: KB05_100 uM_percent_inhibition): 9% | KB05_500 uM_percent_inhibition (UniProt Q86SE9; 500 uM): 58% | inhibition at 500 µM (UniProt Q86SE9; 500 uM, read-out: KB05_500 uM_percent_inhibition): 53% | inhibition at 100 µM (UniProt Q9UJ41; [1]): 33% | percent inhibition (UniProt Q9HCI7): 11% | inhibition at 100 µM (UniProt Q9HCI7; read-out: percent inhibition): 15% | inhibition at 500 µM (UniProt Q96DX4): 24% | inhibition at 100 µM (UniProt Q9HBE1; [1]): 45% | percent_inhibition (UniProt P63208): 14% | inhibition at 100 µM (UniProt P63208): 15%

O=C(CCl)Nc1cc(C(F)(F)F)cc(C(F)(F)F)c1 [KBO3]
KB03_100 uM_percent_inhibition (UniProt Q13049; 100 uM): 14% | percent inhibition (UniProt Q969V5): 38% | KB03_100 uM_percent_inhibition (UniProt O43164; 100 uM): 22% | percent inhibition (UniProt Q9NPC7; 100 uM): 30% | percent inhibition (UniProt Q496Y0; 500 uM): 26% | percent inhibition (UniProt A1L020; 100 uM): 52% | KB03_100 uM_percent_inhibition (UniProt Q86SE9; 100 uM): 25% | KB03_100 uM_percent_inhibition (UniProt Q9UJ41; 100 uM): 20% | percent inhibition (UniProt Q9HCI7): 49% | KB03_100 uM_percent_inhibition (UniProt Q9HBE1; 100 uM): 72%
